Measured values as given in patent US9260436B2 (Sumitomo Chemical Company, Limited, priority 2012, dated 2016).

System: Aphis gossypii
Experiment: Test Example 2: foot drench of cucumber seedling, then inoculation with Aphis gossypii
Format: in vivo
Settings: 500 ppm, 5 ml drenched at foot of cucumber seedling, 7 days then inoculation, further 6 days
Method: On the other hand, a cucumber seedling (the second true leaf stage) planted in a plastic cup was drenched at its foot with 5 ml of the test drug solution, and kept in a greenhouse at 25° C. for 7 days. On the cucumber leaf surface was inoculated 30 Aphis gossypii (whole stage), and further kept in the greenhouse for 6 days, then the number of surviving Aphis gossypii parasitized on the leaves of the cucumber was examined, and the controlling value was calculated according to the following equation: Controlling value (%)={1−(Cb×Tai)/(Cai×Tb)}×100 wherein the symbols represent as follows: Cb: the number of insects in a non-treated section before treatment, Cai: the number of insects in a non-treated section on observation, Tb: the number of insects in a treated section before treatment, Tai: the number of insects in a treated section on observation, wherein the non-treated section refers to a section where the test drug solution prepared by diluting the formulation not containing the compound of the present invention as in Formulation Example 5 with the same amount of water as in the treated section was sprayed.

SMILES	controlling value
CCS(=O)(=O)c1ccccc1-c1cnc2nc(C(F)(F)F)cn2c1	≥ 90%

System: Haemaphysalis longicornis
Experiment: Test Example 11: coated screw tube contact test, Haemaphysalis longicornis nymphal ticks
Format: in vivo
Settings: 48 h, 2 mg compound in 0.2 mL acetone coated on inner wall of screw tube, after 2 days, read-out: death rate
Method: 2 mg of each of Compounds of Present Invention 6, 8, 10, 26, 28, 29, 33, 35 and 37 was weighed in a screw tube (Maruemu No. 5; 27×55 mm), and 0.2 mL of acetone was added thereto and sealed with a cap to dissolve the compound. The screw tube was rotated and inverted to uniformity coat the drug solution onto the whole inner wall of the tube. After removing the cap, the solution was air-dried for about 2 hours, then non-blood-sucking nymphal ticks, Haemaphysalis longicornis (5 ticks/group) were released, and the tube was sealed with the cap. After 2 days, the number of dead ticks was examined, and the death rate was calculated according to the following equation: Death rate (%)=100×(Number of dead ticks/Number of tested ticks).

SMILES	pest or weed control at 2 mg/tube
CCCNc1nc(-c2ccccc2SCC)nc2cc(C(F)(F)F)ccc12 [Compound of Present Invention 8, 2-(2-ethylsulfanylphenyl)-4-propylamino-7-trifluoromethylquinazoline]	100%
CCCNc1nc(-c2ccccc2S(=O)(=O)CC)nc2cc(C(F)(F)F)ccc12 [Compound of Present Invention 10, 2-(2-ethylsulfonylphenyl)-4-propylamino-7-trifluoromethylquinazoline]	100%
CCSc1ccccc1-c1ccc2nc(C(F)(F)F)cn2c1 [Compound of Present Invention 26, 6-(2-ethylsulfanylphenyl)-2-trifluoromethylimidazo[1,2-a]pyridine]	100%
CCSc1ccccc1-c1ccc2nc(C(F)(F)F)cn2c1C [Compound of Present Invention 28, 6-(2-ethylsulfanylphenyl)-5-methyl-2-trifluoromethylimidazo [1,2-a]pyridine]	100%
CCSc1ccccc1-c1ccc2nc(C(F)(F)C(F)(F)F)cn2c1C [Compound of Present Invention 29, 6-(2-ethylsulfanylphenyl)-5-methyl-2-pentafluoroethylimidazo[1,2-a]pyridine]	100%
CCSc1ccccc1-c1ccc2nc(C(F)(F)F)cn2n1 [Compound of Present Invention 33, 6-(2-ethylsulfanylphenyl)-2-trifluoromethylimidazo[1,2-b]pyridine]	100%
CCSc1ccccc1-c1cnc2nc(C(F)(F)F)cn2c1 [Compound of Present Invention 35, 6-(2-ethylsulfanylphenyl)-2-trifluoromethylimidazo[1,2-a]pyrimidine]	100%
CCSc1ccccc1-c1ccn2cc(C(F)(F)F)nc2c1 [Compound of Present Invention 37, 7-(2-ethylsulfanylphenyl)-2-trifluoromethylimidazo[1,2-a]pyridine]	100%
